“And” between values parts separate entries of the source, which are not always exact repeats. Identical values can stand only once. No end group written: not given here.

The subject of this assay is antiserum known to react with the original sequence (FMDV Type A10). The assay is classed as binding, rabbit.

For the substance GDLGSI [GDLGSI], the “Antibody-binding activity, percentage of the mean activity of the six parent sequences” value is 105 percentage and 118 percentage and 88 percentage and 98 percentage and 85 percentage and 106 percentage.
